Data set [1] has as its target OTABA. The experiment in a line: Dye displacement from OTABA mediated by OTA (label-free aptasensor). Type of data set: binding. As to conditions: for Kd: apparent, OTA binding to OTABA from dye displacement, 0.5 μM OTABA; for % D (6 → 0.5 μM): OTA up to 1.5 equiv. The method, then: For dye displacement from the aptamer mediated by OTA, a 2:1 dye:OTABA mixture (12:6 μM) was treated with aliquots of OTA up to 1.5 equiv. (9 μM). Under these conditions, ThT was poorly displaced from the aptamer, displaying only a 6% drop in emission intensity (FIG. 17d). […] Significant differences in the ability of OTA to displace the dyes from the aptamer was not anticipated. Furthermore, given the relative binding affinities of the dyes for OTABA, ThT was expected to display the greatest ease of displacement. Clearly the ability of OTA to displace the dyes from the aptamer had little to do with the dye aptamer binding affinity.
To determine the analytical potential of the dye displacement assay, the 2:1 dye:OTABA starting mixture was optimized and the OTA titrations were repeated using 0.5 μM OTABA in the presence of 1 μM dye. […] Additions of OTA up to 1.5 equiv (0.75 μM) caused 93% BtC displacement, as evidenced by the loss of emission intensity for the aptamer-bound BtC at 640 nm, coupled with the loss of the ET band at 256 nm for BtC stacking with the G-tetrad of the folded aptamer.
From the OTA titrations involving hemicyanine dye displacement (4QI and BtC), a limit of detection (LoD)˜15 nM (6 ng/mL) and a limit of quantification (LoQ)˜45-47 nM (˜18 ng/mL) were determined (R^2=0.95-0.99). In contrast, an LoD of 73 nM (29 ng/mL) and LoQ of 222 nM (89 ng/mL, R^2=0.85) was determined from the ThT displacement data.

For data set [2], the target named is OTABA. Kind of data set: Fluorescent titration of dye binding to OTABA. To be noted: for Kd: apparent, dye binding to OTABA; for λem / λex: dye bound to OTABA; for λex (value in parentheses): footnote not given, line below the bound value. The method, then: Dye interaction with OTABA and subsequent displacement by OTA was initially investigated using fluorescence spectroscopy (FIG. 17) in the previously optimized OTA binding buffer. (Fadock et al., 2017) Additions of OTABA (up to 1.5 equiv.) to the dye (6 μM) caused dose-dependent increases in ligand emission at 488 nm for ThT (240-fold increase at 1.5 equiv. OTABA, FIG. 17a), 605 nm for the 4QI (42-fold, FIG. 17b) and 640 nm for BtC (8-fold, FIG. 17c).

Data set [3] can be described thus: Photostability of 4QI within a DNA helix. In kind it is physicochemical. As to conditions: 6-month period, aqueous buffer pH 7.4. From the text:
The 4QI dye was attached to a glycerol backbone and converted into a phosphoramidite for site-specific incorporation into DNA using solid phase DNA synthesis.

The nature of data set [4]: Photophysical characterization of 4QI (fluorescence spectrometry). Type of data set: physicochemical. As for the experimental part:
(§1) All fluorescence excitation and emission measurements were made at 25.00° C. using a PTI Alphascan-2 spectrofluorometer equipped with a 1×4 Multicell Block Peltier and temperature controller, with baseline correction and variable slit widths as specified. All fluorescence excitation spectra were recorded at the maximum emission wavelength of the fluorophore and emission spectra were recorded at the maximum excitation wavelength.
4QI-alcohol and 4QI-DMT contain the same fluorophore such that characterization of 4QI-alcohol is representative of the solvatochromic and photophysical capacity of the 4QI fluorophore. […] Excitation and emission in the visible region as opposed to the ultraviolet (UV) region is favorable because the dye can be excited using a visible lamp rather than a more expensive UV lamp.

The nature of data set [5]: Solvatochromic studies of 4QI. In kind it is physicochemical. As for the experimental part: as §1
Solvatochromatic studies were completed using quartz cells (Hellma 101-QS) with a light path of 10 mm. A 100 μM stock solution of 4QI was prepared in reagent grade DMSO. Using the stock solution, 3 μM solutions of 4QI were prepared in a series of solvents: MQ water, methanol, acetonitrile, THF, chloroform and isopropyl alcohol. After mixing by inversion (×20), emission and excitation spectra for each sample were recorded as described using slit widths of 5 nm.

Data set [6] in a line: Kinetic studies of 4QI under oligonucleotide deprotection conditions. Type of data set: physicochemical. The method, then: Recall that standard conditions for oligonucleotide deprotection involve heating to 55° C. for 4 h in ammonium hydroxide (Table 3). […] Therefore, all mTBA were deprotected under UltraMild conditions.
Data set [7] is classed as physicochemical. To be noted: 6 μM oligonucleotide, 10% K+ buffer.
The next data set deals with thrombin (Homo sapiens, UniProt P00734). To be noted: isothermal titration calorimetry (Pagano et al. 2008); cited from earlier work.
Where [8] appears, read: first value: 6 μM OTABA, 12 μM dye.
The mark [9] stands for this setting: second value: 0.5 μM OTABA, 1 μM dye.

Consider `Cc1ccc2c(c1)sc(-c1ccc(N(C)C)cc1)[n+]2C` [ThT, Thioflavin T], for which, at OTABA [1] (1 μM dye), the Kd was determined as 292 nM. Further, the “% D (6 → 0.5 μM)” value in the data set on OTABA [1] (setting [8]) is on record as 6%. Moreover, the “% D (6 → 0.5 μM)” value in the data set with OTABA [1] (setting [9]) is recorded as 23%. Besides, on OTABA [2], the Kd came to 10.9 µM, the λem amounted to 488 nm, the λex stood at 448 nm and the “λex (value in parentheses)” value was “(412) nm”.
As for `C[n+]1ccc(/C=C/c2cn(CCCO)c3ccccc23)c2ccccc21.[I-]` [4QI, 4-(2-(1-(3-hydroxypropyl)-1H-indol-3-yl)vinyl)-1-methylquinolin-1-ium iodide], the Kd on OTABA [1] (1 μM dye) is 356 nM; on OTABA [2], 2.5 µM. Also, the “% D (6 → 0.5 μM)” value is 28% with OTABA [1] (setting [8]) and 47% with OTABA [1] (setting [9]). In data set [3], the photostability result is “photostable”. In addition, in the data set on OTABA [2], the λem stood at 605 nm. The molecule further returned a λex with OTABA [2] of 532 nm. For the same molecule, in the data set on OTABA [2], the “λex (value in parentheses)” value was “(493) nm”. The Stokes shift in data set [4] was 104 nm. For the same molecule, the extinction coefficient in data set [4] is 26,660 L/(mol·cm). Besides, the stokes shift in data set [4] is listed as 90 nm. The molecule also displayed a fluorescence emission in data set [4] (following excitation at 500 nm) of 590 nm. For the same molecule, the λem maxima in data set [4] (free in H2O) came out at 580 nm. The molecule further returned a λex maxima in data set [4] (free in H2O) of 520 nm. The λex max came out at 494 nm in data set [5] (Acetonitrile); 486 nm in data set [5] (H2O); 523 nm in data set [5] (Isopropyl-alcohol); 512 nm in data set [5] (Methanol); 514 nm in data set [5] (THF). For the same molecule, the “time to complete bleaching of 4QI absorbance” value was at most 6.5 h in data set [6] (Standard deprotection conditions) and at most 0.05 h in data set [6] (UltraFast deprotection conditions). In data set [6] (UltraMild conditions, 17-hour kinetic study), the “decrease of fluorescence intensity” value stood at 11%.
Take `CCN(CC)c1ccc2cc(/C=C/c3sc4ccccc4[n+]3C)c(=O)oc2c1` [BtC]: the Kd on OTABA [1] (1 μM dye) stood at 112 ± 8.9 nM. The “% D (6 → 0.5 μM)” value in the data set on OTABA [1] (setting [8]) is 52%. For the same molecule, the “% D (6 → 0.5 μM)” value in the data set on OTABA [1] (setting [9]) was 93%. Also, on OTABA [2], the Kd came out at 3.2 µM, the λem was 640 nm, the λex came to 580 nm and the “λex (value in parentheses)” value is on record as “(549) nm”.
Regarding “TBA-15: Native thrombin binding aptamer 5′-GGTTGGTGTGGTTGG”, the “Tm GQ” value in data set [7] was 53.5 °C. For the same molecule, the Kd with thrombin is 330 nM.

(Values after US11215619B2 (priority 2019, dated 2022).)
